Legend:
C57BL/6 mice = experiment: Acute toxicity study; assay type: in vivo; conditions: 1000 mg/kg by gastric tube
Description: The safety of compound 12 in vivo was evaluated through an acute toxicity study on C57BL/6 mice. The compound 12 was administered by gastric tube at a dose of 1000 mg/kg. The normal group was given the same amount of normal saline. […] Finally, the mice were anaesthetised and sacrificed, and the main organs such as heart, liver, spleen, lung and kidney were detected through pathological section.

A375 = experiment: Antiproliferative CCK-8 assay, A375; assay type: cell-based; conditions: Homo sapiens, A-375; A375, CCK-8 assay, means ± SD; read-out: GC50 (the source's name)
Source text: (§1) Compounds12, 13 and 30 were selected for further cell activity assessments based on the enzymatic activity assessment results. molm-13 and MV4-11(acute myeloid lineage leukaemia cells), MGC-803 (gastric cancer cell), MDA-MB-231(breast cancer cell), A375 (melanoma cell), A549 (lung cancer cell), HCT-116, SW-480 and HT-29 (colorectal cancer cells) were selected to evaluate antitumor activity in vitro, GES-1 (gastric mucosal epithelial cell) was selected to evaluate toxicity in vitro.
(§2) CO2 atmosphere incubator for 24 h. Then, medium with compound at the concentrations of 100, 20, 4, 0.8, 0.016 μM was added into each well for another 48 h and incubated with CCK-8 (10 μL) for 2 h at 37 °C. The absorbance value at 450 nm was measured by the microplate reader (PerkinElmer Envision). […]

CYP 2C9 = CYP 2C9 (Homo sapiens, UniProt P11712); experiment: CYP inhibition activity, 2C9; assay type: in vitro ADME
Source text: Table 7. CYP inhibition activity. | column: IC50 (μM) / 2C9

CYP 1A2 = CYP 1A2 (Homo sapiens, UniProt P05177); experiment: CYP inhibition activity, 1A2; assay type: in vitro ADME
Source text: Table 7. CYP inhibition activity. | column: IC50 (μM) / 1A2

CDK2 = CDK2 (Homo sapiens, UniProt P24941); experiment: CDKs selectivity, CDK2; assay type: biochemical
Source text: (§3) CDK7 and CDK9 with the same transcription function and CDK2 and CDK6 were selected to evaluate the selectivity of compound 12.

CYP 2D6 = CYP 2D6 (Homo sapiens, UniProt P10635); experiment: CYP inhibition activity, 2D6; assay type: in vitro ADME
Source text: Table 7. CYP inhibition activity. | column: IC50 (μM) / 2D6

HT-29 = experiment: Antiproliferative CCK-8 assay, HT-29; assay type: cell-based; conditions: Homo sapiens; HT-29, CCK-8 assay, means ± SD; read-out: GC50 (the source's name)
Source text: as §1, §2

CDK7 = CDK7 (Homo sapiens, UniProt P50613); experiment: CDKs selectivity, CDK7; assay type: biochemical
Source text: as §3

CDK8 = CDK8 (Homo sapiens, UniProt P49336); experiment: Cellular thermal shift assay; assay type: cell-based; design: endogenous in cells; host or cells: HCT-116; conditions: HCT-116 cells, 5 μM, 6 h; DMSO 49 °C; western blot
Description: Here, in order to identify compound 12 could bind CDK8, HCT-116 cells, a CDK8 high expression cell line, were treated with 5 μM compound 12 and DMSO for 6 h, respectively. Cell suspension was divided into 11 PCR tubes equally, then the samples were heated from 37 to 67 °C at intervals of 3 °C and the results were analysed through western blot. […] However, CDK8 was degraded almost completely at 55 °C after treated with compound 12, which indicated compound 12 enhanced the thermal stability of CDK8 and compound 12 could bind CDK8.
CO2 atmosphere incubator for 24 h. Then, medium with compound at the concentrations of 100, 20, 4, 0.8, 0.016 μM was added into each well for another 48 h and incubated with CCK-8 (10 μL) for 2 h at 37 °C. The absorbance value at 450 nm was measured by the microplate reader (PerkinElmer Envision).
The kinase inhibition was detected by ADP-Glo™ Kinase Assay (Promega) using a black 384-well plate. […] The data was collected by the microplate reader. […]
were broken by ultr asonic treatment and centrifuged at 12000 rpm for 20 min. The supernatant was analyzed by western blot. […]
After co-treated with 2 μM biotinylated compound and compound 12 for 12 h, HCT-116 cells were lysed with NP-40 containing PMSF and centrifuged at 14000 r for 30 min at 4 °C. […] The samples were analyzed by western blot.

MV4-11 = experiment: Antiproliferative CCK-8 assay, MV4-11; assay type: cell-based; conditions: Homo sapiens; MV4-11, CCK-8 assay, means ± SD; read-out: GC50 (the source's name)
Source text: as §1, §2

CYP 2C9, sequence (P11712 whole entry): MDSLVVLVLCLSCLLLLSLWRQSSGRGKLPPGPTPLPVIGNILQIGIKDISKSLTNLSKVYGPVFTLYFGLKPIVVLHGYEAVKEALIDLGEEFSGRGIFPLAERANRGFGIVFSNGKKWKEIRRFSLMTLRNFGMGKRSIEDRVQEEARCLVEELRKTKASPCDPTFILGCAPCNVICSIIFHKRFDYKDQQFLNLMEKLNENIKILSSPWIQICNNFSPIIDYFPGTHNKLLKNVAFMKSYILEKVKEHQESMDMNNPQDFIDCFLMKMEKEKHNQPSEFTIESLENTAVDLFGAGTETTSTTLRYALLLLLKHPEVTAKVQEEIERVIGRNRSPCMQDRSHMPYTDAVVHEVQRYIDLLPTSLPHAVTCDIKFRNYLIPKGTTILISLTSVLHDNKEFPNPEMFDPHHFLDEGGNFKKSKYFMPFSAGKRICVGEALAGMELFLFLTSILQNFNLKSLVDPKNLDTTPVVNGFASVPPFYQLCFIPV
CYP 2D6, sequence (P10635 whole entry): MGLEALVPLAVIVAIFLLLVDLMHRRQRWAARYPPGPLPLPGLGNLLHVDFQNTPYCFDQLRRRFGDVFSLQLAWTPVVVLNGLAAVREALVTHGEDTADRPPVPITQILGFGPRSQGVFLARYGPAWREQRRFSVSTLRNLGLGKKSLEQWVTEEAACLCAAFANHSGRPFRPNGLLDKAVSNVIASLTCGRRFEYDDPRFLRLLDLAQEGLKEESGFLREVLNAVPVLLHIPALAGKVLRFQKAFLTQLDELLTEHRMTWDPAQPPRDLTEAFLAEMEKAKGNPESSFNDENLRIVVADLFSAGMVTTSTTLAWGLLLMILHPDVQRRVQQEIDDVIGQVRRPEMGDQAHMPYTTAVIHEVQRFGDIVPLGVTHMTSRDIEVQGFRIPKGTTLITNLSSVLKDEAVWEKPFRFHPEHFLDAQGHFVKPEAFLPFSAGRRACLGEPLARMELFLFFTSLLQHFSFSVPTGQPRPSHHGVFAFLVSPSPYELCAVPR
CDK7, sequence (P50613 whole entry): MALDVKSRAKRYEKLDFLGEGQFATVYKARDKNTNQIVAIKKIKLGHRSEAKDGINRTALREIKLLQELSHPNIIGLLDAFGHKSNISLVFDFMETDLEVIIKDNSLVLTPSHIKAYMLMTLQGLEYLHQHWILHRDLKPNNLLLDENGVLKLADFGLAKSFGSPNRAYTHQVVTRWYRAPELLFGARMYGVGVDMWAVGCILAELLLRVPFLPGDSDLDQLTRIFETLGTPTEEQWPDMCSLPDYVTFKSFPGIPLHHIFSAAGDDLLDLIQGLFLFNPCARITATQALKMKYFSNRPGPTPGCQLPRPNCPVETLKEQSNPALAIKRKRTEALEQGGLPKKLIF
CDK7, sequence (P51946 whole entry partner): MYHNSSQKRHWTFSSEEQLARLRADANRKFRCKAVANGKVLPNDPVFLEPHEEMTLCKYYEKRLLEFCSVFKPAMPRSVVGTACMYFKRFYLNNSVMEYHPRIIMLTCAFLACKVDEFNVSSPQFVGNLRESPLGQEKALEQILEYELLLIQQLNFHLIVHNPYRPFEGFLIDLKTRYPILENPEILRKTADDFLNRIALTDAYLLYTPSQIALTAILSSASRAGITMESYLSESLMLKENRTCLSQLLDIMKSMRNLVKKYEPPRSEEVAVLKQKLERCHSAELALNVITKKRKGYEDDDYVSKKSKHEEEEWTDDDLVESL
CDK7, sequence (P51948 whole entry partner): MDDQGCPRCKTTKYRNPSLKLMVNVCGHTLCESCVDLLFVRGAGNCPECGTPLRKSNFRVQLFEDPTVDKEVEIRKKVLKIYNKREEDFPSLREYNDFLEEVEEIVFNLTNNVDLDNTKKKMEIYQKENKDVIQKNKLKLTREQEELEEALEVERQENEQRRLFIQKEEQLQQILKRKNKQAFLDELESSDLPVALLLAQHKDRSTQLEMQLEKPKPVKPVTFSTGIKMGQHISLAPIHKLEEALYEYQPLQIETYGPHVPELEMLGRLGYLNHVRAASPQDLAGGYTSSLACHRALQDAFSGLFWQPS
CDK8, sequence (P49336 whole entry): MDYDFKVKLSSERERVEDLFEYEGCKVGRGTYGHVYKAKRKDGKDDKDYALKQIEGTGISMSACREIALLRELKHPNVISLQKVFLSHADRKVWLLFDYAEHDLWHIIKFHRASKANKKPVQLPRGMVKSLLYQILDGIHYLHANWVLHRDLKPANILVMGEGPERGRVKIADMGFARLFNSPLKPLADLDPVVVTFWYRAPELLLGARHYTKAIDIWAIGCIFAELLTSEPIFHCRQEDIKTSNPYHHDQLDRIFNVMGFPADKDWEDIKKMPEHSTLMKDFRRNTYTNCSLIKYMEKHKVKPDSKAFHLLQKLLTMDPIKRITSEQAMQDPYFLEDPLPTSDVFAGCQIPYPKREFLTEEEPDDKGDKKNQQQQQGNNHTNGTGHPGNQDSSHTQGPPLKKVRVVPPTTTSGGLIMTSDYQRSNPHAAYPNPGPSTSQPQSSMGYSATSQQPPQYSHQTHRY
CYP 1A2, sequence (P05177 whole entry): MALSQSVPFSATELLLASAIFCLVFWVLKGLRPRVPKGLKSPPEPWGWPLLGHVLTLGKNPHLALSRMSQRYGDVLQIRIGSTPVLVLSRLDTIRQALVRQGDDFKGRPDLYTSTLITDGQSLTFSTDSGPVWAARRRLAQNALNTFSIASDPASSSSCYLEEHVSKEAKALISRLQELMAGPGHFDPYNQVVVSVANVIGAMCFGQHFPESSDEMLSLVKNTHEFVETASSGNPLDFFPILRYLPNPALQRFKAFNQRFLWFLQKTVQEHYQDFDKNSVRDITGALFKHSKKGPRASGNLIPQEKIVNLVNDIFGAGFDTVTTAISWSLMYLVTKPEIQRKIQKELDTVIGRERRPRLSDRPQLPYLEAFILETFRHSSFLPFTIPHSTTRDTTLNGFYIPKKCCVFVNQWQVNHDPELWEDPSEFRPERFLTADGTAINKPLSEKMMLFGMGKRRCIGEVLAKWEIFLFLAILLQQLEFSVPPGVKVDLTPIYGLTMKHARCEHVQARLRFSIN

For `NC(=O)c1cccc(-c2cnc3[nH]cc(-c4ccoc4)c3c2)c1` [Compound 12, 3-(3-(furan-3-yl)-1H-pyrrolo[2,3-b]pyridin-5-yl)benzamide], the “Physiological phenomena such as anorexia, drowsiness, seizures and hyperactivity” value (C57BL/6 mice; 7 days) was “no obvious change”, the “Pathological section of heart, liver, spleen, lung and kidney (HE staining)” value (C57BL/6 mice; after 7 days) was “no diseased tissue” and the IC50 (A375) was 1 ± 0.23 µM. The IC50 (CYP 2C9) was > 50 µM, the IC50 (CYP 1A2) was > 50 µM and the IC50 (CDK2) was > 1 µM. For the same compound, the IC50 (CYP 2D6) was > 50 µM, the IC50 (HT-29) was 8.26 ± 0.65 µM and the IC50 (CDK7) was 0.301 ± 0.0278 µM. For the same compound, the “Temperature at which CDK8 was degraded almost completely” value (CDK8) was 55 °C and the IC50 (MV4-11) was 0.03 ± 0.01 µM.

From paper PMC10810651, “Discovery of novel and potent CDK8 inhibitors for the treatment of acute myeloid leukaemia” (Journal of Enzyme Inhibition and Medicinal Chemistry, 2024)
